Data reported in US9695155B2, “Herbicidal substituted pyrimidinyloxy benzene compounds” (E. I. DU PONT DE NEMOURS AND COMPANY, priority 2013, dated 2017).

Key:
morningglory [1] = experiment: Test A preemergence; type: in vivo, Ipomoea spp.
In short: (§1)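 Scoring: eye-based comparison with untreated controls, 0 for no effect through 100 for complete control, at about day 10. Treatments: directed soil spray preemergence; foliar spray postemergence on 2–10 cm plants at the one- to two-leaf stage. Medium: loam soil with sand.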

barnyardgrass [2] = experiment: Test A postemergence; type: in vivo, Echinochloa crus-galli; conditions: Echinochloa crus-galli, post-emergence, 240 h, read-out: Plant response rating, Barnyardgrass
In short: as §1

giant foxtail = experiment: Test A postemergence; type: in vivo, Setaria faberii; conditions: Setaria faberi, post-emergence, 240 h, read-out: Plant response rating, Foxtail, Giant
In short: as §1

wheat = experiment: Test A postemergence; type: in vivo, Triticum aestivum; conditions: Triticum aestivum, post-emergence, 240 h, read-out: Plant response rating, Wheat
In short: as §1

blackgrass [3] = experiment: Test C preemergence; type: in vivo, Alopecurus myosuroides; conditions: Alopecurus myosuroides, pre-emergence
In short: (§2)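 Greenhouse herbicide screen. Pre: seeded loam/sand, sprayed at planting. Post: 1–4 leaf plants (2–18 cm) in peat-based mix. Formulation: solvent mixture + surfactant, non-phytotoxic. Readout: visual % control vs untreated, 13–15 d; dash = not tested.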

Italian ryegrass = experiment: Test C preemergence; type: in vivo, Lolium multiflorum; conditions: Lolium multiflorum, pre-emergence
In short: as §2

johnsongrass = experiment: Test C preemergence; type: in vivo, Sorghum halepense; conditions: Sorghum halepense, pre-emergence
In short: as §2

morningglory [4] = experiment: Test C preemergence; type: in vivo, Ipomoea coccinea; conditions: Ipomoea, pre-emergence
In short: as §2

yellow nutsedge = experiment: Test C preemergence; type: in vivo, Cyperus esculentus; conditions: Cyperus, pre-emergence
In short: as §2

ragweed = experiment: Test C preemergence; type: in vivo, Ambrosia elatior; conditions: Ambrosia artemisiifolia, pre-emergence
In short: as §2

soybean = experiment: Test C preemergence; type: in vivo, Glycine max; conditions: Glycine max, pre-emergence
In short: as §2

barnyardgrass [5] = experiment: Test C preemergence; type: in vivo, Echinochloa crus-galli; conditions: Echinochloa crus-galli, pre-emergence
In short: as §2

oilseed rape [6] = experiment: Test C preemergence; type: in vivo, Brassica napus; conditions: Brassica napus, pre-emergence
In short: as §2

blackgrass [7] = experiment: Test C postemergence; type: in vivo, Alopecurus myosuroides; conditions: Alopecurus myosuroides, post-emergence
In short: as §2

large (Lg) crabgrass = experiment: Test C postemergence; type: in vivo, Digitaria sanguinalis; conditions: Digitaria sanguinalis, post-emergence
In short: as §2

oilseed rape [8] = experiment: Test C postemergence; type: in vivo, Brassica napus
In short: as §2

[9] = 125 g ai/ha, 0 to 100 scale, 0 no effect, 100 complete control
[10] = 500 g ai/ha, 0 to 100 scale where 0 is no effect and 100 is complete control

## N#Cc1cccc(Oc2ncc(Cl)cn2)c1-n1cc(OCC(F)(F)F)cn1 [Compound 274, 3-[(5-chloro-2-pyrimidinyl)oxy]-2-[4-(2,2,2-trifluoroethoxy)-1H-pyrazol-1-yl]benzonitrile]
Morningglory [1]; 125 g ai/ha
  Morningglory plant response rating (0 to 100 scale): 100
Morningglory [1]; Ipomoea, pre-emergence, 240 h, 500 g ai/ha, 0 to 100 scale where 0 is no effect and 100 is complete control, read-out: Morningglory plant response rating
  pest or weed control at 500 g/ha: 100%
Barnyardgrass [2]; [9]
  pest or weed control at 125 g/ha: 90%
Barnyardgrass [2]; [10]
  pest or weed control at 500 g/ha: 100%
Giant foxtail; [9]
  pest or weed control at 125 g/ha: 90%
Giant foxtail; [10]
  pest or weed control at 500 g/ha: 90%
wheat; [9]
  plant injury at 125 g/ha: 70%
wheat; [10]
  plant injury at 500 g/ha: 80%
Blackgrass [3]; 16 g ai/ha, preemergence, scale 0 to 100 (0 no effect, 100 complete control), read-out: Blackgrass plant response rating
  pest or weed control at 16 g/ha: 50%
Blackgrass [3]; 125 g ai/ha, preemergence, scale 0 (no effect) to 100 (complete control), read-out: Blackgrass plant response rating
  pest or weed control at 125 g/ha: 90%
Blackgrass [3]; Preemergence, 62 g ai/ha, scale 0 to 100, 0 no effect, 100 complete control, read-out: Plant response rating, Blackgrass
  pest or weed control at 62 g/ha: 90%
Italian ryegrass; 16 g ai/ha, preemergence, scale 0 to 100 (0 no effect, 100 complete control), read-out: Ryegrass, Italian plant response rating
  pest or weed control at 16 g/ha: 25%
Italian ryegrass; 125 g ai/ha, preemergence, scale 0 (no effect) to 100 (complete control), read-out: Ryegrass, Italian plant response rating
  pest or weed control at 125 g/ha: 90%
Italian ryegrass; Preemergence, 62 g ai/ha, scale 0 to 100, 0 no effect, 100 complete control, read-out: Plant response rating, Ryegrass, Italian
  pest or weed control at 62 g/ha: 90%
johnsongrass; 16 g ai/ha, preemergence, scale 0 to 100 (0 no effect, 100 complete control), read-out: Johnsongrass plant response rating
  pest or weed control at 16 g/ha: 10%
johnsongrass; 125 g ai/ha, preemergence, scale 0 (no effect) to 100 (complete control), read-out: Johnsongrass plant response rating
  pest or weed control at 125 g/ha: 98%
johnsongrass; Preemergence, 62 g ai/ha, scale 0 to 100, 0 no effect, 100 complete control, read-out: Plant response rating, Johnsongrass
  pest or weed control at 62 g/ha: 95%
Morningglory [4]; 16 g ai/ha, preemergence, scale 0 to 100 (0 no effect, 100 complete control), read-out: Morningglory plant response rating
  pest or weed control at 16 g/ha: 35%
Morningglory [4]; 125 g ai/ha, preemergence, scale 0 (no effect) to 100 (complete control), read-out: Morningglory plant response rating
  pest or weed control at 125 g/ha: 100%
Morningglory [4]; Preemergence, 62 g ai/ha, scale 0 to 100, 0 no effect, 100 complete control, read-out: Plant response rating, Morningglory
  pest or weed control at 62 g/ha: 100%
Yellow nutsedge; 16 g ai/ha, preemergence, scale 0 to 100 (0 no effect, 100 complete control), read-out: Nutsedge, Yellow plant response rating
  pest or weed control at 16 g/ha: 20%
Yellow nutsedge; 125 g ai/ha, preemergence, scale 0 (no effect) to 100 (complete control), read-out: Nutsedge, Yellow plant response rating
  pest or weed control at 125 g/ha: 95%
Yellow nutsedge; Preemergence, 62 g ai/ha, scale 0 to 100, 0 no effect, 100 complete control, read-out: Plant response rating, Nutsedge, Yellow
  pest or weed control at 62 g/ha: 85%
ragweed; 16 g ai/ha, preemergence, scale 0 to 100 (0 no effect, 100 complete control), read-out: Ragweed plant response rating
  pest or weed control at 16 g/ha: 10%
ragweed; 125 g ai/ha, preemergence, scale 0 (no effect) to 100 (complete control), read-out: Ragweed plant response rating
  pest or weed control at 125 g/ha: 75%
ragweed; Preemergence, 62 g ai/ha, scale 0 to 100, 0 no effect, 100 complete control, read-out: Plant response rating, Ragweed
  pest or weed control at 62 g/ha: 35%
soybean; 16 g ai/ha, preemergence, scale 0 to 100 (0 no effect, 100 complete control), read-out: Soybean plant response rating
  plant injury at 16 g/ha: 35%
soybean; 125 g ai/ha, preemergence, scale 0 (no effect) to 100 (complete control), read-out: Soybean plant response rating
  plant injury at 125 g/ha: 98%
soybean; Preemergence, 62 g ai/ha, scale 0 to 100, 0 no effect, 100 complete control, read-out: Plant response rating, Soybean
  plant injury at 62 g/ha: 95%
Barnyardgrass [5]; 16 g ai/ha, preemergence, scale 0 to 100 (0 no effect, 100 complete control), read-out: Barnyardgrass plant response rating
  pest or weed control at 16 g/ha: 90%
Barnyardgrass [5]; 125 g ai/ha, preemergence, scale 0 (no effect) to 100 (complete control), read-out: Barnyardgrass plant response rating
  pest or weed control at 125 g/ha: 100%
Barnyardgrass [5]; Preemergence, 62 g ai/ha, scale 0 to 100, 0 no effect, 100 complete control, read-out: Plant response rating, Barnyardgrass
  pest or weed control at 62 g/ha: 100%
Oilseed rape [6]; 16 g ai/ha, preemergence, scale 0 to 100 (0 no effect, 100 complete control), read-out: Oilseed Rape plant response rating
  plant injury at 16 g/ha: 80%
Oilseed rape [6]; 125 g ai/ha, preemergence, scale 0 (no effect) to 100 (complete control), read-out: Oilseed Rape plant response rating
  plant injury at 125 g/ha: 95%
Oilseed rape [6]; Preemergence, 62 g ai/ha, scale 0 to 100, 0 no effect, 100 complete control, read-out: Plant response rating, Oilseed Rape
  plant injury at 62 g/ha: 95%
Blackgrass [7]; 16 g ai/ha, postemergence, 0 is no effect, 100 is complete control, read-out: Plant response rating (0 to 100), Blackgrass
  pest or weed control at 16 g/ha: 5%
Blackgrass [7]; 31 g ai/ha, postemergence, visual rating, scale 0 to 100 (0 no effect, 100 complete control), 13 to 15 days, read-out: Blackgrass plant response rating
  pest or weed control at 31 g/ha: 5%
Blackgrass [7]; 125 g ai/ha, postemergence, visual rating, scale 0 to 100 (0 no effect, 100 complete control), read-out: Plant response rating, Blackgrass
  pest or weed control at 125 g/ha: 20%
Blackgrass [7]; Postemergence, 62 g ai/ha, scale 0 to 100 (0 no effect, 100 complete control), 13 to 15 days, read-out: Plant response rating, Blackgrass
  pest or weed control at 62 g/ha: 15%
Large (Lg) crabgrass; 16 g ai/ha, postemergence, 0 is no effect, 100 is complete control, read-out: Plant response rating (0 to 100), Crabgrass, Large
  pest or weed control at 16 g/ha: 5%
Large (Lg) crabgrass; 31 g ai/ha, postemergence, visual rating, scale 0 to 100 (0 no effect, 100 complete control), 13 to 15 days, read-out: Crabgrass, Large plant response rating
  pest or weed control at 31 g/ha: 5%
Large (Lg) crabgrass; 125 g ai/ha, postemergence, visual rating, scale 0 to 100 (0 no effect, 100 complete control), read-out: Plant response rating, Crabgrass, Large
  pest or weed control at 125 g/ha: 60%
Large (Lg) crabgrass; Postemergence, 62 g ai/ha, scale 0 to 100 (0 no effect, 100 complete control), 13 to 15 days, read-out: Plant response rating, Crabgrass, Large
  pest or weed control at 62 g/ha: 30%
Oilseed rape [8]; 31 g ai/ha, postemergence, visual rating, scale 0 to 100 (0 no effect, 100 complete control), 13 to 15 days
  Oilseed Rape plant response rating: 80
Oilseed rape [8]; Brassica napus, post-emergence, 16 g ai/ha, postemergence, 0 is no effect, 100 is complete control, read-out: Plant response rating (0 to 100), Oilseed Rape
  plant injury at 16 g/ha: 60%
Oilseed rape [8]; Brassica napus, post-emergence, 125 g ai/ha, postemergence, visual rating, scale 0 to 100 (0 no effect, 100 complete control), read-out: Plant response rating, Oilseed Rape
  plant injury at 125 g/ha: 90%
Oilseed rape [8]; Brassica napus, post-emergence, Postemergence, 62 g ai/ha, scale 0 to 100 (0 no effect, 100 complete control), 13 to 15 days, read-out: Plant response rating, Oilseed Rape
  plant injury at 62 g/ha: 85%
